The results in this text go back to US6518050B1, “Process for producing and extracting aromatic compounds” (Revico, priority 1998, dated 2003).

Data set [1] concerns Sporobolomyces odorus. Nature of the data set: Biomass production (OD at 620 nm) of S. odorus cultures on distilling slops with added precursor or additives. The data set is classed as cell-based. The note with it: for Biomass (OD at 620 nm): culture period of 77 hours; for OD at 620 nm: measured after 77 hours, 0 ml: 8.74; for OD620: HNCH 5 g/vial, culture period of 150 hours. As for the experimental part:
During these culture processes, performed in a liquid medium, temperature was held at 24° C. and stirring was at 250 rpm (revolutions per minute).
Time dependency of the amount of biomass produced during cultivation of this yeast, was tracked by measuring the optical density (OD) of the cell suspension at 620 nm. On the spectrophotometer, 0 was obtained with a sample of pure medium (baseline).
In order to test the effect of adding methyl ricinoleate to cultures of S. odorus on distilling slops exclusively, 1 ml of this precursor was added to cellular suspensions of 60 ml of 24 hours of age. […] Indeed, instead of a final concentration, after 77 hours, of 1.02 mg/l on distilling slops or of 6.47 mg/l when castor oil was added, we obtained concentrations of 28.23 mg/l (FIG. 8). […] So it would become rapidly a limiting factor in obtaining free ricinoleic acid from castor oil. Adding directly usable methyl ricinoleate overcomes this problem and lactone production yields are improved.
In order to optimize the added amount of methyl ricinoleate, we produced cultures to which we added after 24 hours either 0.83%, or 1.66%, or 10% (v/v) of methyl ricinoleate.
Additions of RM were performed at instants t=0, 24, 48 and 72 hours. These cultures were produced in 250 ml erlenmeyers containing 5 g of HNCH and 60 ml of sown distilling slops at an initial yeast cell density of 0.2 units of OD620 (optical density measured at 620 nm).
With the aim of increasing the productivity of the system by implementing an in situ extraction of γ-decalactone, two series of tests were conducted; one at an initial cell density of 0.2 (control), the other at an initial cell density of 4.

Data set [2] relates to Sporobolomyces odorus. Nature of the data set: Toxicity of γ-decalactone: yeast growth kinetics on distilling slop medium containing lactone. The data set is classed as cell-based. The procedure: Time dependency of the amount of biomass produced during cultivation of this yeast, was tracked by measuring the optical density (OD) of the cell suspension at 620 nm. On the spectrophotometer, 0 was obtained with a sample of pure medium (baseline). In order to determine whether γ-decalactone is toxic for cells, yeast growth kinetics on a distilling slop medium containing either 50 mg/l or 250 mg/l of lactone were obtained (FIG. 11). […] Beyond this point, a shift was observed. […] Indeed, the maximum achieved OD was 4 instead of 15 in the control. This same phenomenon was already observed by Ferron and al. (1996) who determined that the compatible dose with a non-zero cell growth rate is between 100 and 200 mg/l. This would partly explain why lactone concentrations of 250 to 300 mg/l were not exceeded under the retained experimental conditions.

SMILES strings stand for the structures.

Regarding `CCCCCC[C@@H](O)C/C=C\CCCCCCCC(=O)OC` [methyl ricinoleate], the figures for the “Biomass (OD at 620 nm)” value with Sporobolomyces odorus [1] (0.06% at t = 0 hrs + 0.83% at t = 24 hrs) and with Sporobolomyces odorus [1] (0.83% v/v at t = 24 hrs) were 8.4 and 8.0, respectively. The “OD at 620 nm” value in the data set on Sporobolomyces odorus [1] (0.5 ml RM added to 60 ml culture after 24 hours) worked out at 8.00; in the data set on Sporobolomyces odorus [1] (1 ml RM added to 60 ml culture after 24 hours), 7.94; in the data set with Sporobolomyces odorus [1] (6 ml RM added to 60 ml culture after 24 hours), 8.98. Also, the “biomass, OD” value in the data set with Sporobolomyces odorus [1] (1 ml added to 60 ml cultures of 24 hours of age, after 77 hours, 14.0 on distilling slops exclusively) is 11.06. For the same molecule, the OD620 was determined as 8 in the data set on Sporobolomyces odorus [1] (4×0.03, 0.06 or 0.12% (v/v) of precursor) and 15 in the data set with Sporobolomyces odorus [1] (4×0.18% (v/v) of precursor).

In the case of `CCCCCCC1CCC(=O)O1` (stereo not shown) [γ-decalactone], the “effect on the yeast's growth” value in the data set on Sporobolomyces odorus [2] (50 mg/l lactone in distilling slop medium, first 50 hours of culture) is recorded as “did not affect the yeast's growth”. In addition, the microorganism growth entry in the data set on Sporobolomyces odorus [2] (250 mg of lactone in distilling slop medium) is given as “significantly reduced”. For the same molecule, in the data set on Sporobolomyces odorus [2] (250 mg of lactone, control 15), the “maximum achieved OD” value is recorded as 4. In addition, the “toxicity exerted on yeast above (concentration)” value with Sporobolomyces odorus [2] (statement in section C 1.1) is “above 150 mg/l”. Besides, the “toxic effect observed beyond (concentration)” value in the data set on Sporobolomyces odorus [2] (summary statement of section 6) was above 250 mg/L.
